Test results published in patent US20230077362A1 (CORTEVA AGRISCIENCE LLC, priority 2019, published 2023).

Legend:
[1] = tested on: Beet Armyworm (Spodoptera exigua) ("BAW"), second instar larvae; experiment: Bioassay on beet armyworm (BAW), 128-well diet tray assay; type: in vivo; details: for pest or weed control at 50 µg/cm2: Spodoptera exigua, read-out: BAW rating; for BAW rating: Table ABC, species BAW, C = not tested, D = no activity noticed
Summary of the method: (§1)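 Second-instar larvae on diet in 128-well trays, covered and held at 25° C, 14:10 light-dark, for five to seven days. Percent mortality scored per well and averaged over eight wells; activity reported as a rating category.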

[2] = tested on: Cabbage Looper (Trichoplusia ni) ("CL"), second instar larvae; experiment: Bioassay on cabbage looper (CL), 128-well diet tray assay; type: in vivo; details: for pest or weed control at 50 µg/cm2: Trichoplusia ni, read-out: CL rating; for CL rating: Table ABC, species CL, C = not tested, D = no activity noticed
Summary of the method: as §1

| SMILES | pest or weed control at 50 µg/cm2 [1] | pest or weed control at 50 µg/cm2 [2] | BAW rating [1] | CL rating [2] |
| --- | --- | --- | --- | --- |
| CCOCc1ccc(C)cc1N1C(=O)CS/C1=N\C(=O)Nc1ccc(-c2ncn(-c3ccc(S(F)(F)(F)(F)F)cc3)n2)cc1C(F)(F)F [Compound J627, (Z)-1-(3-(2-(Ethoxymethyl)-5-methylphenyl)-4-oxothiazolidin-2-ylidene)-3-(4-(1-(4-(pentafluoro-λ^6-sulfaneyl)phenyl)-1H-1,2,4-triazol-3-yl)-2-(trifluoromethyl)phenyl)urea] | 50 to 100% | 50 to 100% |  |  |
| CCCc1ccc(C)cc1N1C(=O)CS/C1=N\C(=O)Nc1ccc(-c2ncn(-c3ccc(S(F)(F)(F)(F)F)cc3)n2)cc1C(F)(F)F [Compound J628, (Z)-1-(3-(5-Methyl-2-propylphenyl)-4-oxothiazolidin-2-ylidene)-3-(4-(1-(4-(pentafluoro-λ^6-sulfaneyl)phenyl)-1H-1,2,4-triazol-3-yl)-2-(trifluoromethyl)phenyl)urea] | 50 to 100% | 50 to 100% |  |  |
| Cc1ccc(OCCC(F)(F)F)c(N2C(=O)CS/C2=N\C(=O)Nc2ccc(-c3ncn(-c4ccc(S(F)(F)(F)(F)F)cc4)n3)cc2C(F)(F)F)c1 [Compound J629, (Z)-1-(3-(5-Methyl-2-(3,3,3-trifluoropropoxy)phenyl)-4-oxothiazolidin-2-ylidene)-3-(4-(1-(4-(pentafluoro-λ^6-sulfaneyl)phenyl)-1H-1,2,4-triazol-3-yl)-2-(trifluoromethyl)phenyl)urea] | 50 to 100% | 50 to 100% |  |  |
| CC(C)c1ccc(N(C)C)cc1N1C(=O)CS/C1=N\C(=O)Nc1ccc(-c2ncn(-c3ccc(S(F)(F)(F)(F)F)cc3)n2)cc1C(F)(F)F [Compound J630, (Z)-1-(3-(5-(Dimethylamino)-2-isopropylphenyl)-4-oxothiazolidin-2-ylidene)-3-(4-(1-(4-(pentafluoro-λ^6-sulfaneyl)phenyl)-1H-1,2,4-triazol-3-yl)-2-(trifluoromethyl)phenyl)urea] | 50 to 100% | 50 to 100% |  |  |
| CCOC(C)c1ccc(C)cc1N1C(=O)CS/C1=N\C(=O)Nc1ccc(-c2ncn(-c3ccc(S(F)(F)(F)(F)F)cc3)n2)cc1C(F)(F)F (stereo not drawn) [Compound J631, (Z)-1-(3-(2-(1-Ethoxyethyl)-5-methylphenyl)-4-oxothiazolidin-2-ylidene)-3-(4-(1-(4-(pentafluoro-λ^6-sulfaneyl)phenyl)-1H-1,2,4-triazol-3-yl)-2-(trifluoromethyl)phenyl)urea] | 50 to 100% | 50 to 100% |  |  |
| Cc1cc(COCC(F)(F)F)c(N2C(=O)CS/C2=N\C(=O)Nc2ccc(-c3ncn(-c4ccc(S(F)(F)(F)(F)F)cc4)n3)cc2C(F)(F)F)cc1C [Compound J632, (Z)-1-(3-(4,5-Dimethyl-2-((2,2,2-trifluoroethoxy)methyl)phenyl)-4-oxothiazolidin-2-ylidene)-3-(4-(1-(4-(pentafluoro-λ^6-sulfaneyl)phenyl)-1H-1,2,4-triazol-3-yl)-2-(trifluoromethyl)phenyl)urea] | 50 to 100% | 50 to 100% |  |  |
| COc1cc(COCC(F)(F)F)c(N2C(=O)CS/C2=N\C(=O)Nc2ccc(-c3ncn(-c4ccc(S(F)(F)(F)(F)F)cc4)n3)cc2C(F)(F)F)cc1OC [Compound J633, (Z)-1-(3-(4,5-Dimethoxy-2-((2,2,2-trifluoroethoxy)methyl)phenyl)-4-oxothiazolidin-2-ylidene)-3-(4-(1-(4-(pentafluoro-λ^6-sulfaneyl)phenyl)-1H-1,2,4-triazol-3-yl)-2-(trifluoromethyl)phenyl)urea] | 50 to 100% | 50 to 100% |  |  |
| CCc1ccc(COCC(F)(F)F)c(N2C(=O)CS/C2=N\C(=O)Nc2ccc(-c3ncn(-c4ccc(OC(F)(F)F)cc4)n3)cc2F)c1 [Compound J634] |  |  | A (50-100) | A (50-100) |
| Cc1ccc(COCc2ccccc2F)c(N2C(=O)CS/C2=N\C(=O)Nc2ccc(-c3ncn(-c4ccc(OC(F)(F)F)cc4)n3)cc2F)c1 [Compound J635, (Z)-1-(2-Fluoro-4-(1-(4-(trifluoromethoxy)phenyl)-1H-1,2,4-triazol-3-yl)phenyl)-3-(3-(2-(((2-fluorobenzyl)oxy)methyl)-5-methylphenyl)-4-oxothiazolidin-2-ylidene)urea] | 50 to 100% | 50 to 100% |  |  |
| O=C(/N=C1\SCC(=O)N1c1ccc(Cl)cc1COCc1ccccc1)Nc1ccc(-c2ncn(-c3ccc(OC(F)(F)F)cc3)n2)cc1F [Compound J636, (Z)-1-(3-(2-((Benzyloxy)methyl)-4-chlorophenyl)-4-oxothiazolidin-2-ylidene)-3-(2-fluoro-4-(1-(4-(trifluoromethoxy)phenyl)-1H-1,2,4-triazol-3-yl)phenyl)urea] | 50 to 100% | 0 to 50% |  |  |
| Cc1ccc(COCc2nc3ccccc3s2)c(N2C(=O)CS/C2=N\C(=O)Nc2ccc(-c3ncn(-c4ccc(OC(F)(F)F)cc4)n3)cc2F)c1 [Compound J640, (Z)-1-(3-(2-((Benzo[d]thiazol-2-ylmethoxy)methyl)-5-methylphenyl)-4-oxothiazolidin-2-ylidene)-3-(2-fluoro-4-(1-(4-(trifluoromethoxy)phenyl)-1H-1,2,4-triazol-3-yl)phenyl)urea] | 50 to 100% | 50 to 100% |  |  |
| CCc1ccc(COCC(F)(F)F)c(N2C(=O)CS/C2=N\C(=O)Nc2ccc(-c3ncn(-c4ccc(OC(F)(F)F)cc4)n3)cc2C)c1 [Compound J641] |  |  | A (50-100) | A (50-100) |
| CCc1ccc(COCC(F)(F)F)c(N2C(=O)CS/C2=N\C(=O)Nc2ccc(-c3ncn(-c4ccc(C(F)(F)F)cc4)n3)cc2F)c1 [Compound J642] |  |  | A (50-100) | A (50-100) |
| Cc1ccc(C(C)C)c(N2C(=O)CS/C2=N\C(=O)Nc2ccc(-c3cn(-c4ccc(S(=O)(=O)C(F)(F)F)cc4)cn3)cc2F)c1 [Compound J651, (Z)-1-(2-Fluoro-4-(1-(4-((trifluoromethyl)sulfonyl)phenyl)-1H-imidazol-4-yl)phenyl)-3-(3-(2-isopropyl-5-methylphenyl)-4-oxothiazolidin-2-ylidene)urea] | 50 to 100% | 50 to 100% |  |  |
| Cc1cc(COCC(F)(F)F)c(N2C(=O)CS/C2=N\C(=O)Nc2ccc(-c3ncn(-c4ccc(C(F)(F)F)cc4)n3)cc2F)cc1C [Compound J660] |  |  | A (50-100) | A (50-100) |
| O=C(/N=C1\SCC(=O)N1c1ccccc1COCC(F)(F)F)Nc1ccc(-c2ncn(-c3ccc(C(F)(F)F)cc3)n2)cc1F [Compound J661] |  |  | A (50-100) | A (50-100) |
| Cc1ccc(COCC(F)(F)F)c(N2C(=O)CS/C2=N\C(=O)Nc2ccc(-c3ncn(-c4ccc(OC(F)(F)C(F)(F)F)cc4)n3)cc2F)c1 [Compound J662] |  |  | A (50-100) | A (50-100) |
| Cc1ccc(C(C)C)c(N2C(=O)CS/C2=N\C(=O)Nc2ncc(-c3ncn(-c4ccc(C(F)(F)F)cc4)n3)cc2C)c1 [Compound J664, (Z)-1-(3-(2-isopropyl-5-methylphenyl)-4-oxothiazolidin-2-ylidene)-3-(3-methyl-5-(1-(4-(trifluoromethyl)phenyl)-1H-1,2,4-triazol-3-yl)pyridin-2-yl)urea] | 50 to 100% | 50 to 100% |  |  |
| O=C(/N=C1\SCC(=O)N1c1cc(F)ccc1COCC(F)(F)F)Nc1ccc(-c2ncn(-c3ccc(S(=O)(=O)C(F)(F)F)cc3)n2)cc1F [Compound J670, (Z)-1-(3-(5-Fluoro-2-((2,2,2-trifluoroethoxy)methyl)phenyl)-4-oxothiazolidin-2-ylidene)-3-(2-fluoro-4-(1-(4-((trifluoromethyl)sulfonyl)phenyl)-1H-1,2,4-triazol-3-yl)phenyl)urea] | 50 to 100% | 50 to 100% |  |  |
| COCc1ccc(N(C)C)cc1N1C(=O)CS/C1=N\C(=O)Nc1ccc(-c2ncn(-c3ccc(S(=O)(=O)C(F)(F)F)cc3)n2)cc1F [Compound J671, (Z)-1-(3-(5-(Dimethylamino)-2-(methoxymethyl)phenyl)-4-oxothiazolidin-2-ylidene)-3-(2-fluoro-4-(1-(4-((trifluoromethyl)sulfonyl)phenyl)-1H-1,2,4-triazol-3-yl)phenyl)urea] | 50 to 100% | 50 to 100% |  |  |
| CN(C)c1ccc(OCC(F)(F)F)c(N2C(=O)CS/C2=N\C(=O)Nc2ccc(-c3ncn(-c4ccc(S(=O)(=O)C(F)(F)F)cc4)n3)cc2F)c1 [Compound J672, (Z)-1-(3-(5-(Dimethylamino)-2-(2,2,2-trifluoroethoxy)phenyl)-4-oxothiazolidin-2-ylidene)-3-(2-fluoro-4-(1-(4-((trifluoromethyl)sulfonyl)phenyl)-1H-1,2,4-triazol-3-yl)phenyl)urea] | 50 to 100% | 50 to 100% |  |  |
| Cc1ccc(Cc2ccc(F)cc2)c(N2C(=O)CS/C2=N\C(=O)Nc2ccc(-c3ncn(-c4ccc(OC(F)(F)F)cc4)n3)cc2F)c1 [Compound J674, (Z)-1-(2-Fluoro-4-(1-(4-(trifluoromethoxy)phenyl)-1H-1,2,4-triazol-3-yl)phenyl)-3-(3-(2-(4-fluorobenzyl)-5-methylphenyl)-4-oxothiazolidin-2-ylidene)urea] | 50 to 100% | 50 to 100% |  |  |
| Cc1ccc(Cc2cccc(F)c2)c(N2C(=O)CS/C2=N\C(=O)Nc2ccc(-c3ncn(-c4ccc(OC(F)(F)F)cc4)n3)cc2F)c1 [Compound J676, (Z)-1-(2-Fluoro-4-(1-(4-(trifluoromethoxy)phenyl)-1H-1,2,4-triazol-3-yl)phenyl)-3-(3-(2-(3-fluorobenzyl)-5-methylphenyl)-4-oxothiazolidin-2-ylidene)urea] | 50 to 100% | 50 to 100% |  |  |
| Cc1cccc(N2C(=O)CS/C2=N\C(=O)Nc2ccc(-c3ncn(-c4ccc(C(F)(F)F)cc4)n3)cc2F)c1COCC(F)(F)F [Compound J677] |  |  | A (50-100) | A (50-100) |
